In one data set the target is Human Factor XIa (Homo sapiens, UniProt P03951). The experiment in a line: Inhibition of human coagulation factor XIa by absorptiometry (substrate S-2366). Type of data set: biochemical. The conditions noted are these: 37° C., 20 min incubation, absorbance 405 nm; read-out: hFXIa IC50. Here is the method: Example 50: Detection of the Biological Activity of the Compounds of the Present Invention on the Inhibition of Human Coagulation Factor XIa by Absorptiometry
Buffer: 145 mM NaCl, 5 mM KCl, 1 mg/mL PEG 8000, 30 mM HEPES, pH 7.4
10 mM test compound dissolved in 100% DMSO was diluted with 100% DMSO to […]; 98 μL of FXIa enzyme solution (77.7 ng/mL) was added to each well of a 96-well plate, and 98 μL of buffer was added to the blank wells. 2 μL of compounds of different concentrations were added, and the blank and control wells were added with DMSO instead. They were mixed with a shaker, and incubated at 37° C. for 20 minutes.
Finally, 100 μL of 800 μM substrate was added to each well, and its absorbance was measured at 405 nm.

The nature of the next data set: Rat pharmacokinetics. Type of data set: in vivo, SD rats. The arrangement: AUC: concentration or dose not given beside the values. The note with it: for AUC / Cmax / Tmax / clearance / half-life / Vd: male, SD, plasma; for Vd: read-out: Vss. The text has this: Example 53: Investigation of the Pharmacokinetic Characteristics of the Compounds of the Present Invention
SD rats: male, 180-250 g, purchased from Guangdong Medical Laboratory Animal Center. Cynomolgus monkey: male, 4-6 kg, purchased from Guangzhou Chunsheng Biological Research Institute Co., Ltd. Beagle dog: male, 8-12 kg, developed in Kanglong Chemical (Ningbo) New Drug Technology Co., Ltd.
Reagents: DMSO (dimethyl sulfoxide), PEG-400 (polyethylene glycol 400), normal brine, heparin, acetonitrile, formic acid, and propranolol (internal standard) are commercially available.
Instrumentation: Thermo Fisher Scientific LC-MS (U300 UPLC, TSQ […] ULTRA triple quadrupole mass spectrometer).
The compound was weighed and dissolved in DMSO-PEG-400-physiological brine (5:60:35, v/v/v) system. After the rats/monkeys were administered intravenously or by gavage, 200 μL of venous blood was collected at 5 min (not collected when administered by gavage), 15 min, 30 min, 1 h, 2 h, 4 h, 6 h, 8 h, and 24 h in heparinized EP tubes, centrifuged at 12000 rpm for 2 min, and the plasma was frozen at −80° C. for testing. A certain amount of the test substance was precisely weighed and dissolved in DMSO to 1 mg/mL, which was used as a stock solution. An appropriate amount of compound stock solution was accurately pipetted and diluted with acetonitrile to prepare a standard series of solutions. 20 μL of each of the above standard series solutions were accurately pipetted, added with 180 μL of blank plasma, vortexed and mixed to prepare plasma samples equivalent to plasma concentrations of 1, 3, 10, 30, 100, 300, 1000, 3000 and 5000 ng/mL. Two-sample analysis was performed for each concentration to establish a standard curve. 20 μL of plasma was taken out, added with 200 μL of internal standard propranolol (5 ng/mL) in acetonitrile, vortexed and mixed. It was centrifuged at 4000 rpm for 5 min, and the supernatant was collected for LC-MS analysis. LC-MS detection conditions were as follows:
Chromatographic column: Thermo Scientific […] GOLD C-18 UPLC column, 100*2.1 mm, 1.9 μm.
Mobile phase: water (0.1% formic acid)-acetonitrile for gradient elution according to the table below.
After blood drug concentrations being detected by LC-MS, WinNonlin 6.1 software was used to calculate pharmacokinetic parameters by non-compartmental model method.

In a further data set the test system is human plasma. Nature of the data set: Anticoagulant effect on human plasma in vitro (APTT determination). Type of data set: biochemical. The conditions noted are these: for aPTT EC1.5×: concentration giving APTT of 1.5× blank control; for aPTT EC2×: concentration giving APTT of 2× blank control. Here is the method: Example 51: Determination of the Anticoagulant Effect of the Compounds of the Present Invention on Human Plasma In Vitro
Plasma: Human blood was collected in a vacuum blood collection tube containing 3.2% sodium citrate (volume ratio 1:9), centrifuged at 3000 rpm for 10 min at room temperature, and the plasma was collected, divided into EP tubes, and stored at −80° C.
Reagents: APTT assay kit (Activated partial thromboplastin time assay kit, mindray), calcium chloride solution.
Instrument: coagulation meter (mindray, C2000-A)
The frozen human plasma in aliquots was thawed at room temperature and mixed well. 10 mM test compound dissolved in 100% DMSO was diluted with 100% DMSO to 1500, 750, 375, 187.5, 93.75, 46.88, 23.44, 11.72 μM. 98 μL of human plasma was added to a 1.5 mL EP tube, then 2 μL of compounds of different concentrations were added, and 2 μL of 100% DMSO was added for the blank group. They were incubated under a water bath at 37° C. for 10 min, and the samples were placed in the corresponding position of the coagulation analyzer to conduct APTT determination of the compounds.
Curve fitting was performed with GraphPad Prism software, and EC1.5× and EC2× values were calculated respectively, i.e., the concentrations of the compounds corresponding to the APTT of 1.5× and 2× blank control group.

Data on 15 compounds can be found in US20230027295A1, “FXIA INHIBITORS AND PREPARATION METHOD THEREFOR AND PHARMACEUTICAL USE THEREOF” (Shenzhen Salubris Pharmaceuticals Co., Ltd., priority 2019, published 2023).

Sequence of Human Factor XIa (P03951 388-625 limits assumed): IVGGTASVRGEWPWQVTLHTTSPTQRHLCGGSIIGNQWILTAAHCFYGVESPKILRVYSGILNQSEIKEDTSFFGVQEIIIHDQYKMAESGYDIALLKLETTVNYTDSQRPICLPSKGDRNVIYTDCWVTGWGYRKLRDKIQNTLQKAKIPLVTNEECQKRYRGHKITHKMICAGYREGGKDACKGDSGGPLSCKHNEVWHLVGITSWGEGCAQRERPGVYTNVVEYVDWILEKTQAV
Sequence of Human Factor XIa (P03951 19-387 partner limits assumed): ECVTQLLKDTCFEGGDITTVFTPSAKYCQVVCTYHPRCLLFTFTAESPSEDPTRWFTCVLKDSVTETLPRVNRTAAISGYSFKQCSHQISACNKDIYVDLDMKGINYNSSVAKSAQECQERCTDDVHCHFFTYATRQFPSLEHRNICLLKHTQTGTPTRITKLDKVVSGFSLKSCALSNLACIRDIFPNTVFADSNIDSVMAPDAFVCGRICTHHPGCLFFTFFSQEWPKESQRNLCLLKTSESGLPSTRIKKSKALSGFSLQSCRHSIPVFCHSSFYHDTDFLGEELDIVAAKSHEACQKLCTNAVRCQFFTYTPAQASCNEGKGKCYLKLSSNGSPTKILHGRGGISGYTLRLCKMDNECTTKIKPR

What is called IC50 is the concentration that inhibits the measured activity by half. Turning to `COc1nn([C@@H](Cc2ccccc2)C(=O)Nc2ccc(C(=O)O)c(O)c2)c(=O)cc1-c1cc(Cl)ccc1C(C)=O` [Example 29, (S)-4-(2-(4-(2-acetyl-5-chlorophenyl)-3-methoxy-6-oxopyridazin-1(6H)-yl)-3-phenylpropan amido)-2-hydroxybenzoic acid], the IC50 on Human Factor XIa was 63.8 nM.

The AUC is the area under the concentration-time curve, a measure of exposure. One may read the Cmax as the highest concentration seen after dosing. In general, Tmax refers to the time at which the peak concentration occurs. As usually defined, the clearance is the rate of elimination divided by the concentration. In general, half-life refers to the time in which the quantity being followed falls by half. Take `O=C(O)c1ccc(NC(=O)[C@H](Cc2ccccc2)n2cnc(-c3cc(Cl)ccc3-n3cc(Cl)nn3)cc2=O)cc1` [Compound A, (S)-4-(2-(4-(5-chloro-2-(4-chloro-1H-1,2,3-triazol-1-yl)phenyl)-6-oxopyrimidin-1(6H)-yl)-3-phenylpropanamido)benzoic acid, reference compound]: the F in the data set “Rat pharmacokinetics” (ig) is reported as 8.2%. In addition, in “Rat pharmacokinetics” (iv), the exposure (AUC) came out at 1410 ng·h/mL, the Cmax worked out at 4600 ng/mL, the Tmax came to 4.98 min and the clearance is 11.9 mL/min/kg. In addition, in the data set “Rat pharmacokinetics” (iv), the half-life is 35.3 min and the Vd turned out to be 0.124 L/kg. For the same compound, in the data set “Rat pharmacokinetics” (po, ig), the exposure (AUC) stood at 576 ng·h/mL, the Cmax came out at 180 ng/mL, the Tmax is 30 min and the half-life was 75.6 min.

Take `COc1nn(C(Cc2cccc(C)c2)C(=O)Nc2ccc(C(=O)O)cc2)c(=O)cc1-c1cc(Cl)ccc1C(C)=O` (stereo not shown) [Example 8, 4 (2-(4-(2-acetyl-5-chlorophenyl)-3-methoxy-6-oxopyridazine-1(6H)-yl)-3-(m-tolyl)propanamido)benzoic acid]: in the data set with human plasma, the “aPTT EC1.5×” value came out at 2.67 µM and the “aPTT EC2×” value is over 15 µM. In addition, the IC50 on Human Factor XIa turned out to be 30.3 nM.

Turning to `CC(=O)c1ccc(Cl)cc1-c1cc(=O)n([C@@H](Cc2ccccc2)C(=O)Nc2ccc(C(=O)O)cc2)nc1OCC1CC1` [Example 20, (S)-4-(2-(4-(2-acetyl-5-chlorophenyl)-3-(cyclopropylmethoxy)-6-oxopyridazin-1(6H)-yl)-3-phenylpropanamido)benzoic acid], in the data set with human plasma, the “aPTT EC1.5×” value stood at 2.418 µM and the “aPTT EC2×” value stood at 28.32 µM. For the same compound, the IC50 on Human Factor XIa came to 20.6 nM.

In the case of `COc1nn([C@@H](Cc2ccccc2)C(=O)Nc2ccc(C(=O)O)c(F)c2)c(=O)cc1-c1cc(Cl)ccc1C(C)=O` [Example 14, (S)-4-(2-(4-(2-acetyl-5-chlorophenyl)-3-methoxy-6-oxopyridazin-1(6H)-yl)-3-phenylpropanamido)-2-fluorobenzoic acid], on Human Factor XIa, the IC50 was 59.3 nM.

As for `COc1nn(C(Cc2ccc(NC(=O)C3CCCC3)cc2)C(=O)Nc2ccc(C(=O)O)cc2)c(=O)cc1-c1cc(Cl)ccc1C(C)=O` (stereo not shown) [Example 40, 4-(2-(4-(2-acetyl-5-chlorophenyl)-3-methoxy-6-oxopyridazin-1(6H)-yl)-3-(4-(cyclopentaneformamido)phenyl)propanamido)benzoic acid], in the data set on human plasma, the “aPTT EC1.5×” value was found to be 2.636 µM and the “aPTT EC2×” value was determined as 14.94 µM. Further, the IC50 at Human Factor XIa was determined as 13.9 nM.

In the case of `CC(=O)c1ccc(Cl)cc1-c1cnn([C@@H](Cc2ccccc2)C(=O)Nc2ccc(C(=O)O)cc2)c(=O)c1` [Example 1, (S)-4-(2-(4-(2-acetyl-5-chlorophenyl)-6-oxopyridazin-1(6H)-yl)-3-phenylpropanamido)benzoic acid], in the data set on human plasma, the “aPTT EC1.5×” value stood at 9.31 µM and the “aPTT EC2×” value was over 30 µM.

As for `COc1cc(NC(=O)[C@H](Cc2ccccc2)n2nc(OC)c(-c3cc(Cl)ccc3C(C)=O)cc2=O)ccc1C(=O)O` [Example 28, (S)-4-(2-(4-(2-acetyl-5-chlorophenyl)-3-methoxy-6-oxopyridazin-1(6H)-yl)-3-phenylpropan amido)-2-methoxybenzoic acid], the IC50 at Human Factor XIa worked out at 218 nM.

In “Rat pharmacokinetics” (ig), `CC(=O)c1ccc(Cl)cc1-c1cc(=O)n([C@@H](Cc2ccccc2)C(=O)Nc2ccc(C(=O)O)cc2)nc1OCCO` [Example 6, (S)-4-(2-(4-(2-acetyl-5-chlorophenyl)-3-(2-hydroxyethoxy)-6-oxopyridazine-1(6H)-yl)-3-phenylpropanamido)benzoic acid] had an F of 1.7%. Besides, in “Rat pharmacokinetics” (iv), the AUC worked out at 604 ng·h/mL, the concentration peaked (Cmax) at 1370 ng/mL, the Tmax amounted to 4.98 min and the clearance worked out at 27.6 mL/min/kg. Further, in “Rat pharmacokinetics” (iv), the half-life is 9.72 min and the Vd amounted to 0.432 L/kg. Further, in “Rat pharmacokinetics” (po, ig), the Cmax came out at 30.5 ng/mL and the Tmax was 60 min. Also, in the data set on human plasma, the “aPTT EC1.5×” value was 0.771 µM and the “aPTT EC2×” value was found to be 2.892 µM.

Take `O=C(O)c1ccc(NC(=O)[C@H](Cc2ccccc2)n2ncc(-c3c(F)ccc(Cl)c3F)cc2=O)cc1` [Example 42, (S)-4-(2-(4-(3-chloro-2,6-difluorophenyl)-6-oxopyridazin-1(6H)-yl)-3-phenylpropanamido)benzoic acid]: the IC50 at Human Factor XIa is 1400 nM.

Take `COc1nn(C(Cc2ccc(NC(=O)C3CC3)cc2)C(=O)Nc2ccc(C(=O)O)cc2)c(=O)cc1-c1cc(Cl)ccc1C(C)=O` (stereo not shown) [Example 33, 4-(2-(4-(2-acetyl-5-chlorophenyl)-3-methoxy-6-oxopyridazin-1(6H)-yl)-3-(4-(cyclopropaneformamido)phenyl)propanamido)benzoic acid]: in the data set on human plasma, the “aPTT EC1.5×” value came out at 1.527 µM and the “aPTT EC2×” value came to 7.691 µM. Further, the IC50 at Human Factor XIa stood at 19.9 nM.

Regarding `COc1nn([C@@H](Cc2ccccc2)C(=O)Nc2ccc(C(=O)O)c(Cl)c2)c(=O)cc1-c1cc(Cl)ccc1C(C)=O` [Example 27, (S)-4-(2-(4-(2-acetyl-5-chlorophenyl)-3-methoxy-6-oxopyridazin-1(6H)-yl)-3-phenylpropanamido)-2-chlorobenzoic acid], the IC50 on Human Factor XIa was found to be 79.5 nM.

As for `COc1nn(C(Cc2ccc(NC(=O)C3CCC3)cc2)C(=O)Nc2ccc(C(=O)O)cc2)c(=O)cc1-c1cc(Cl)ccc1C(C)=O` (stereo not shown) [Example 39, 4-(2-(4-(2-acetyl-5-chlorophenyl)-3-methoxy-6-oxopyridazin-1(6H)-yl)-3-(4-(cyclobutaneformamido)phenyl)propanamido)benzoic acid], in the data set with human plasma, the “aPTT EC1.5×” value was 1.638 µM and the “aPTT EC2×” value is 6.859 µM. Moreover, the IC50 at Human Factor XIa came out at 16.4 nM.

For the compound `CC(=O)c1ccc(Cl)cc1-c1cc(=O)n([C@@H](Cc2ccccc2)C(=O)Nc2ccc(C(=O)O)cc2)nc1O` [Example 34, (S)-4-(2-(4-(2-acetyl-5-chlorophenyl)-3-hydroxy-6-oxopyridazin-1(6H)-yl)-3-phenylpropanamido)benzoic acid], the IC50 at Human Factor XIa was determined as 140 nM.

Take `COc1nn(C(Cc2ccc(Br)cc2)C(=O)Nc2ccc(C(=O)O)cc2)c(=O)cc1-c1cc(Cl)ccc1C(C)=O` (stereo not shown) [Example 3, 4-(2-(4-(2-acetyl-5-chlorophenyl)-3-methoxy-6-oxopyridazin-1(6H)-yl)-3-(4-bromophenyl)propanamido)benzoic acid]: at Human Factor XIa, the IC50 worked out at 51.2 nM.
